Assay results taken from patent publication US10213416B2, “Substituted benzoxazolone derivatives as acid ceramidase inhibitors, and their use as medicaments” (FONDAZIONE ISTITUTO ITALIANO DI TECNOLOGIA, priority 2014, dated 2019).
“Also recorded” adds a separate entry of the source.

Assays:
[1] = molecular target: human (hAC) acid ceramidase (Homo sapiens (Human), UniProt Q13510); experiment: Fluorescent-based in vitro assay of acid ceramidase inhibition; assay type: biochemical; settings: human acid ceramidase-enriched lysosomal lysate from HEK293 cells, fluorogenic probe 5 μM, pH 4.5
human (hAC) acid ceramidase, sequence (Q13510 143-395): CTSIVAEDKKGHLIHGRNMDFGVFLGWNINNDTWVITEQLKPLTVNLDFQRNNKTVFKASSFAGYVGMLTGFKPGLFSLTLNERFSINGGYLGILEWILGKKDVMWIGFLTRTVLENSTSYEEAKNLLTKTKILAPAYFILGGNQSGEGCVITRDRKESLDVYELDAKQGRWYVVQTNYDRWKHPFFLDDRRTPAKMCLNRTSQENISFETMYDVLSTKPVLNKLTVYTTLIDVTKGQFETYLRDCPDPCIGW
human (hAC) acid ceramidase, sequence (Q13510 22-142): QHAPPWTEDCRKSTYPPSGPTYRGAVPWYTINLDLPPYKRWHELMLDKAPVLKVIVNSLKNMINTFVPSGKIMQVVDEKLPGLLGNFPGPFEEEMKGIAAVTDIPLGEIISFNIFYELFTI
Description: To evaluate the potency of the compounds towards acid ceramidase, a fluorescence-based in vitro assay previously described in literature (Bedia C et al., ChemBioChem, 2007, 8, 642-648) was implemented and optimized. This assay is based on a “fluorogenic probe” containing a coumarin group and a sphingoid base moiety (see figure below), which is not fluorescent in itself, but upon enzymatic cleavage by acid ceramidase followed by a chemical transformation liberates the fluorescent molecule umbelliferone (7-hydroxychromen-2-one). By quantifying the generation of umbelliferone using a fluorescence plate-reader, the level of enzymatic activity can be measured, whereby IC50 values of compounds that inhibit this activity can be generated.
Lysosomal lysate, enriched with acid ceramidase, was prepared from a cell line stably expressing human acid ceramidase. In the assay, the fluorogenic probe (or substrate) serves as a ceramide-analogue, which is recognized and hydrolyzed at the amide bond by acid ceramidase from the enriched lysate to yield the fatty acid and coumarinic aminodiol.
A lysosomal human acid ceramidase protein preparation was obtained from HEK293 cells stably expressing acid ceramidase suspended in 20 mM Tris HCl (pH 7.5) with 0.32 M sucrose. The cell solution was sonicated and centrifuged at 800×g for 15 min at 4° C. Supernatants were then centrifuged at 12,000×g for 30 min at 4° C. Pellets were re-suspended in phosphate-buffered saline (PBS) pH 7.4 and subjected to two freeze-thaw cycles at −80° C. The suspension was finally centrifuged at 105,000×g for 1 h at 4° C. and protein concentration was measured in the supernatant with bicinchinonic-acid based protein assay.
The assay was performed in Optiplate 96-wells black plates, with each reaction well containing a mixture of 25 mM sodium acetate buffer pH 4.5 and a fixed amount of protein (2 μg) in a volume of 85 μL. After 30 min of pre-incubation with test compounds (diluted 20× from DMSO stock solutions at different concentrations), the fluorogenic probe was added (diluted 20× from EtOH stock solution, final concentration 5 μM). After incubation for 3 h at 37° C., the reactions were stopped with 50 μl of methanol and 100 μl of a 2.5 mg/mL NaIO4 fresh solution in 100 mM Glycine/NaOH pH 10.6. The plate was incubated at 37° C. for 2 h in the dark and fluorescence intensities were measured at excitation/emission wavelengths of 360/446 nm. Negative control samples consisted of the same incubation mixture in the absence of protein extracts. The IC50 values or percent of inhibition, at the indicated concentration, of selected compounds described in the invention are reported in Table 2.

[2] = tested on: MAG-hydrolysing enzymes (monoacylglycerol lipase (MGL), hormone-sensitive lipase (HSL), endothelial lipase); experiment: MAG-hydrolysing activity ex vivo in mouse tissues after systemic administration (LC-MS based assay); settings: mice, 10 mg-kg-1 intraperitoneal, measured 3 h after injection; brain, liver, fat and heart
Method: (§1) Specifically, the compound of Example 1 was tested for its ability to inhibit the hydrolytic degradation of diacylglycerols (DAG) and monoacylglycerols (MAG) in live mice. DAG and MAG hydrolysis is catalyzed by multiple serine lipases, including diacylglycerol lipase (DGL), monoacylglycerol lipase (MGL), hormone-sensitive lipase (HSL), and endothelial lipase. Thus, by monitoring the effects of compound of Example 1 on MAG-hydrolysing activity as well as DAG and MAG levels ex vivo, we gain important information as to the ability of the compound to interfere with those lipases in a physiologically relevant setting.
Specifically, FIG. 1 evidences the effect of Example 1 or vehicle (DMSO) on MGL activity in brain, liver, fat and heart. MAG-hydrolysing activity was measured 3 h after intraperitoneal injection of compound of Example 1 (10 mg-kg-1). Results are expressed as mean±s.e.m. (n=5). […] The levels of MAGs were quantified after 3 hours after intraperitoneal injection of compound of Example 1 (10 mg-kg-1). Specifically, levels of 16:0 MAG, 18:0 MAG, 18:1 MAG, 22:4 MAG, 22:6 MAG were measured in the brain (a); levels of 16:0 MAG, 18:0 MAG, 18:1 MAG, 22:4 MAG were measured in the liver (b), in fat (c) and in the heart (d). Results are expressed as mean±s.e.m. (n=5).
Tissue was homogenized in ice-cold Tris-HCl (50 mM, pH7.5, 10 vol) containing sucrose (0.32 M). […]

[3] = tested on: levels of MAGs in brain, liver, fat and heart; experiment: Levels of monoacylglycerols (MAG) in mouse tissues after systemic administration; assay type: in vivo; settings: mice, 10 mg-kg-1 intraperitoneal, 3 hours after injection
Method: as §1
Specifically, FIG. 1 evidences the effect of Example 1 or vehicle (DMSO) on MGL activity in brain, liver, fat and heart. MAG-hydrolysing activity was measured 3 h after intraperitoneal injection of compound of Example 1 (10 mg-kg-1). Results are expressed as mean±s.e.m. (n=5). […] The levels of MAGs were quantified after 3 hours after intraperitoneal injection of compound of Example 1 (10 mg-kg-1). Specifically, levels of 16:0 MAG, 18:0 MAG, 18:1 MAG, 22:4 MAG, 22:6 MAG were measured in the brain (a); levels of 16:0 MAG, 18:0 MAG, 18:1 MAG, 22:4 MAG were measured in the liver (b), in fat (c) and in the heart (d). Results are expressed as mean±s.e.m. (n=5). […]

Row | IC50 [1] | Compound | MAG-hydrolysing activity (MGL activity) [2] | levels of the most representative MAGs (16:0, 18:0, 18:1, 22:4, 22:6 MAG) [3]
1 | 75 ± 20 nM | O=C(NCCCCCc1ccccc1)n1c(=O)oc2cc(-c3ccc(F)cc3)ccc21 [Example 1, 6-(4-fluorophenyl)-2-oxo-N-(5-phenylpentyl)-1,3-benzoxazole-3-carboxamide] | lack of effect; also recorded: did not cause inhibition; also recorded: no inhibitory activity | lack of effect; also recorded: remained unchanged
2 | 111 ± 30 nM | O=C(NCCCCCCc1ccccc1)n1c(=O)oc2ccc(-c3ccc(C(F)(F)F)cc3)cc21 [Example 3, 2-oxo-N-(6-phenylhexyl)-5-[4-(trifluoromethyl)phenyl]-1,3-benzoxazole-3-carboxamide] |  | 
3 | 125 ± 79 nM | O=C(NCCCCCCc1ccccc1)n1c(=O)oc2c(-c3ccc(F)cc3)cccc21 [Example 4, 7-(4-fluorophenyl)-2-oxo-N-(6-phenylhexyl)-1,3-benzoxazole-3-carboxamide] |  | 
4 | 26 ± 3 nM | COc1ccc(C(=O)c2ccc3c(c2)oc(=O)n3C(=O)NCCCCCc2ccccc2)cc1 [Example 6, 6-(4-methoxybenzoyl)-2-oxo-N-(5-phenylpentyl)-1,3-benzoxazole-3-carboxamide] |  | 
5 | 46 ± 31 nM | COc1ccc(C(=O)c2ccc3oc(=O)n(C(=O)NCCCCCCc4ccccc4)c3c2)cc1 [Example 8, 5-(4-methoxybenzoyl)-2-oxo-N-(6-phenylhexyl)-1,3-benzoxazole-3-carboxamide] |  | 
6 | 66 ± 15 nM | O=C(c1ccc(F)cc1)c1cccc2c1oc(=O)n2C(=O)NCCCCCc1ccccc1 [Example 9, 7-(4-fluorobenzoyl)-2-oxo-N-(5-phenylpentyl)-1,3-benzoxazole-3-carboxamide] |  | 
7 | 37 nM | O=C(NCCCCCc1ccccc1)n1c(=O)oc2c(-c3ccc(F)cc3)cc(Cl)cc21 [Example 14, 5-chloro-7-(4-fluorophenyl)-2-oxo-N-(5-phenylpentyl)-1,3-benzoxazole-3-carboxamide] |  | 
8 | 240 ± 58 nM | O=C(NCCCCSc1ccccc1)n1c(=O)oc2ccc(-c3ccc(F)cc3)cc21 [Example 15, 5-(4-fluorophenyl)-2-oxo-N-(4-phenylsulfanylbutyl)-1,3-benzoxazole-3-carboxamide] |  | 

Row | Compound | IC50 [1] | MAG-hydrolysing activity (MGL activity) [2] | levels of the most representative MAGs (16:0, 18:0, 18:1, 22:4, 22:6 MAG) [3]
9 | CCCCOCCCNC(=O)n1c(=O)oc2cc(-c3ccc(F)cc3)ccc21 [Example 13, N-(3-butoxypropyl)-6-(4-fluorophenyl)-2-oxo-1,3-benzoxazole-3-carboxamide] | 132 ± 5 nM |  | 
